Results from US3991052A (priority 1975, dated 1976).
Values after ≈ are worked out from the molar mass of the structure shown.

How the values were obtained:
Erwinia amylovora = experiment: MIC, standard agar-dilution assay; format: cell-based
C. albicans = experiment: dermal C. albicans infection in rabbits, topical treatment; format: in vivo; details: ten days treatment with 1% solution in propylene glycol
Cryptococcus neoformans = experiment: MIC, standard agar-dilution assay; format: cell-based
Blastomyces dermatitidis = experiment: MIC, standard agar-dilution assay; format: cell-based
[1] = tested on: Staphylococcus aureus 3055; experiment: MIC, standard agar-dilution assay; format: cell-based
[2] = tested on: Pseudomonas solanacearum X185; experiment: microbe, parasite or virus in culture; format: cell-based; details: Ralstonia solanacearum
Salmonella typhosa SA12 = experiment: MIC, standard agar-dilution assay; format: cell-based; details: Salmonella enterica
Escherichia coli EC14 = experiment: MIC, standard agar-dilution assay; format: cell-based
[3] = tested on: Bordetella bronchiseptica 16; experiment: MIC, standard agar-dilution assay; format: cell-based
[4] = tested on: Trichophyton mentagrophytes 27; experiment: MIC, standard agar-dilution assay; format: cell-based
[5] = tested on: Staphylococcus aureus 3074; experiment: MIC, standard agar-dilution assay; format: cell-based
Histoplasma capsulatum = experiment: microbe, parasite or virus in culture; format: cell-based
[6] = toxicity (LD50) in mice, intraperitoneal; details: mouse, in vivo, ip, intraperitoneally
Candida albicans = experiment: standard disc-diffusion assay; format: cell-based
[7] = tested on: Citrobacter freundii MX CF17; experiment: MIC, standard agar-dilution assay; format: cell-based; details: MXCF17
Salmonella typhimurium = experiment: MIC, standard agar-dilution assay; format: cell-based; details: Salmonella enterica
[8] = tested on: Pseudomonas aeruginosa X239; experiment: MIC, standard agar-dilution assay; format: cell-based
Serratia marcescens SE3 = experiment: MIC, standard agar-dilution assay; format: cell-based
Aspergillus flavus E = experiment: MIC, standard agar-dilution assay; format: cell-based
Proteus morganii PR15 = experiment: MIC, standard agar-dilution assay; format: cell-based; details: Morganella morganii
Ceratocystis ulmi = experiment: MIC, standard agar-dilution assay; format: cell-based
Candida tropicalis Z17 = experiment: MIC, standard agar-dilution assay; format: cell-based
[9] = tested on: Streptococcus faecalis X66; experiment: MIC, standard agar-dilution assay; format: cell-based; details: Enterococcus faecalis
[10] = tested on: Klebsiella pneumoniae KL14; experiment: MIC, standard agar-dilution assay; format: cell-based

Structure (SMILES): COC1c2cc(Cl)c(O)cc2ON2C(=O)C3NC(=O)C12SS3 (stereo not drawn)
- MIC (Erwinia amylovora): 6.25 µg/mL (≈ 17.3 µM)
- lesions caused by a dermal C. albicans infection (C. albicans): reduced in severity and size
- MIC (Cryptococcus neoformans): < 0.156 µg/mL
- MIC (Blastomyces dermatitidis): 10 µg/mL (≈ 27.7 µM)
- MIC [1]: 3.12 µg/mL (≈ 8.65 µM)
- MIC [2]: > 100 µg/mL
- MIC (Salmonella typhosa SA12): > 100 µg/mL
- MIC (Escherichia coli EC14): > 100 µg/mL
- MIC [3]: 50 µg/mL (≈ 139 µM)
- MIC [4]: 25 µg/mL (≈ 69.3 µM)
- MIC [5]: 0.78 µg/mL (≈ 2.16 µM)
- MIC (Histoplasma capsulatum): 10 µg/mL (≈ 27.7 µM)
- LD50 [6]: 106 mg/kg
- amount inhibiting Candida albicans (Candida albicans): less than 0.312 mcg per disc
- MIC [7]: > 100 µg/mL
- MIC (Salmonella typhimurium): > 100 µg/mL
- MIC [8]: > 100 µg/mL
- MIC (Serratia marcescens SE3): > 100 µg/mL
- MIC (Aspergillus flavus E): 25 µg/mL (≈ 69.3 µM)
- MIC (Proteus morganii PR15): > 100 µg/mL
- MIC (Ceratocystis ulmi): 12.5 µg/mL (≈ 34.6 µM)
- MIC (Candida tropicalis Z17): > 100 µg/mL
- MIC [9]: > 100 µg/mL
- MIC [10]: > 100 µg/mL
